Laboratory results as given in patent EP3641564B1, “TASTE MODULATING FLAVORING SUBSTANCES” (Symrise AG, priority 2017, dated 2018).

Tests used:
[1] = Sensory panel rating of bitterness reduction of a caffeine solution; format: in vivo; details: for Bitterness rating with test substance (0-100 scale): expert panel mean, rating 0 [nicht bitter] to 100 [extrem bitter]; for % Reduktion des Bitter-Eindrucks (Signifikanz): 500 ppm Coffein, calculated from panel means versus solution without test substance
Text: (§1) Um die Reduzierung (d.h. die Maskierung oder Verminderung) des Bitter-Eindrucks in einer Probe zu quantifizieren, wurde die Bitterkeit einer Lösung enthaltend 500 ppm Coffein oder 300 ppm Theobromin oder 100 ppm Naringin von einer Expertengruppe jeweils mit einer Probe verglichen, die 500 ppm Coffein oder 300 ppm Theobromin oder 100 ppm Naringin und zusätzlich die jeweils angegebene Menge einer (hinsichtlich der Fähigkeit zur Bitter-Reduzierung) zu beurteilenden Substanz enthielt (Einstufung: 0 [nicht bitter] bis 100 [extrem bitter]). Für die Auswertung, d.h. die Berechnung der Reduktion (in %) des Bittereindrucks wurden jeweils die Durchschnittswerte der Einschätzungen der Expertengruppe verwendet. Die Ergebnisse sind in Tabelle 1 zusammengefasst: Tabelle 1: Bitterreduzierung einer Bitterstofflösung

[2] = Sensory panel rating of bitterness reduction of a theobromine solution; format: in vivo
Text: as §1

[3] = 10 ppm test substance in 500 ppm Coffein solution

With `COc1ccc(/C=C/c2cccc(O)c2C(=O)O)cc1O` [Substanz (6), 2-Hydroxy-6-[(E)-2-(3-hydroxy-4-methoxyphenyl)vinyl]benzoesäure] the “Bitterness rating with test substance (0-100 scale)” value (“Bitterness rating” for short) [1, 3] was 37.50 ± 18.84 and the “% Reduktion des Bitter-Eindrucks (Signifikanz)” value ([1]; 10 ppm test substance) was 18.3 % (p = 0.15).
For `COc1ccc(C(O)Cc2cccc(O)c2C(=O)O)cc1O` (single isomer, unassigned) [Substanz (3), 2-Hydroxy-6-[2-hydroxy-2-(3-hydroxy-4-methoxyphenyl)ethyl]benzoesäure], the “Bitterness rating” value [1, 3] was 41.25 + 21.83, the “% Reduktion des Bitter-Eindrucks (Signifikanz)” value ([1]; 10 ppm test substance) was 14.0 % (p = 0.29) and the “Bitterness rating” value ([1]; 25 ppm test substance in 500 ppm Coffein solution) was 38.85 + 19.19. For the same compound, the “% Reduktion des Bitter-Eindrucks (Signifikanz)” value ([1]; 25 ppm test substance) was 26.5 % (p < 0.05), the “Bitter-Eindruck (0-100) mit Testsubstanz” value ([2]; 25 ppm test substance in 300 ppm Theobromin solution, expert panel mean, rating 0 [nicht bitter] to 100 [extrem bitter]) was 39.76 ± 20.91 and the “% Reduktion des Bitter-Eindrucks (Signifikanz)” value ([2]; 25 ppm test substance, 300 ppm Theobromin, calculated from panel means versus solution without test substance) was 16.5 % (p = 0.21).
